The test addresses T1, human H4 receptor (Homo sapiens, UniProt Q9H3N8).
T1 construct: expressed in transfected cells
As to the kind of experiment: Binding Assay on Recombinant Human Histamine H4 Receptor. Conditions: Table 2; [3H] histamine competition binding, membranes of SK-N-MC cells transfected with human H4 receptor; average of results. In short, it runs like this:
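Radioligand binding used membranes from SK-N-MC cells stably or transiently expressing human H4, prepared in 50 mM Tris/5 mM EDTA. Nonspecific binding was defined with 100 μM histamine. Bound radioactivity was counted after filtration on PEI-treated GF/C filters, and ">" values are the highest concentration tested.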

T1 sequence (Q9H3N8 whole entry): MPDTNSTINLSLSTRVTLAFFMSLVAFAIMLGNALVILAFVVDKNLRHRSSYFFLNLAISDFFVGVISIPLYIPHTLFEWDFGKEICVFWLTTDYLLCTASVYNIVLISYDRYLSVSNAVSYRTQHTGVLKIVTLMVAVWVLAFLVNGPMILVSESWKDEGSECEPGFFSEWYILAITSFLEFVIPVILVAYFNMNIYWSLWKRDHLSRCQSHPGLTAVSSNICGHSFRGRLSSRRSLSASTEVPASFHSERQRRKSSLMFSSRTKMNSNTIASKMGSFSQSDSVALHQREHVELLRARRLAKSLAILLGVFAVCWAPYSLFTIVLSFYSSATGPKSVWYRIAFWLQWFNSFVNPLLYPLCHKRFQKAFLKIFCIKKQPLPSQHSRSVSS

Usually Ki stands for the dissociation constant of the complex between target and ligand, obtained from inhibition or displacement. As for `CN1CCN(c2cc(Cc3ccsc3)nc(N)n2)CC1` [Example 207, 4-(4-Methyl-piperazin-1-yl)-6-thiophen-3-ylmethyl-pyrimidin-2-ylamine], the Ki is 2 nM.

Source of the values: patent publication US8716475B2, “2-aminopyrimidine modulators of the histamine H4 receptor” (Janssen Pharmaceutica NV, priority 2007, dated 2014).
